Data: US10865213B2, “Max binders as MYC modulators and uses thereof” (Massachusetts Institute of Technology, priority 2016, dated 2020)
In brackets after ≈: the same amount, converted by molar mass. Like-named read-outs stand apart in the source and are kept apart here.

Tests used:
[1] = test system: c-Myc; experiment: c-Myc reporter gene assay (Qiagen), Firefly/Renilla ratio, HEK293T cells; format: cell-based
Experimental: The activity of Compound 1 against Myc was measured as a Firefly/Renilla ratio, using the Myc reporter assay (Qiagen) in HEK293T cells after treatment with Compound 1 for 16 hours. Results are expressed as a mean+/−SD (n=3). SD: standard deviation.
Select compounds described herein that were SMM assay positives were evaluated in several versions of a c-Myc reporter gene assay, including a commercial assay from Qiagen. The compounds' activities against c-Myc were measured as a Firefly/Renilla ratio, using the Myc reporter assay (Qiagen) in HEK293T cells after treatment with the compounds for 16 hours.

[2] = test system: P493-6 Myc ON cells; experiment: Cell viability, CELL TITER GLO, P493-6 Myc ON; format: cell-based, human
Description: (§1) FIGS. 3A to 3B show exemplary results of an assay of cell viability and the selectivity of Compound 1 for cells expressing Myc and non-Myc expressing cells. Compound 1 affected cell viability after treatment with Compound 1 for 3 days, as measured using CELL TITER GLO (Promega) in a cancer cell line (P493-6, derived from human B-cells), where Myc is ON (FIG. 3A) or Myc is OFF (FIG. 3B). Results were expressed as a mean+/−SEM (n=3). RLU: Relative Luminescence Units.
(§2) The selectivity of Compound 1 for cells expressing Myc over non-Myc expressing cells in cancer cell line P493-6 (engineered cell line derived from human B-cells) was determined. Adding doxycycline to P493-6 growth media shuts off Myc transcription. Exemplary results are shown in FIGS. 3A to 3B, where cell viability was assessed by CELL TITER GLO assay (Promega). FIG. 3A depicts the assay results for cells expressing Myc, and FIG. 3B depicts the assay results for non-Myc expressing cells. […] The selectivity of other compounds described herein in cancer cell line cancer cell line P493-6 was also determined, and exemplary results are shown in Table 2, where viability was assessed by CELL TITER GLO assay (Promega).

[3] = test system: P493-6 Myc OFF cells; experiment: Cell viability, CELL TITER GLO, P493-6 Myc OFF; format: cell-based, human
Description: as §1, §2

[4] = test system: P3HR1; experiment: Viability assay in P3HR1; format: cell-based; details: Homo sapiens, P3HR-1; P3HR1, non-engineered cell line
[5] = test system: ST-486; experiment: Viability assay in ST-486; format: cell-based; details: Homo sapiens, ST486; ST-486, non-engineered cell line
[6] = target: c-Myc/Max heterodimer (Homo sapiens, UniProt P61244); experiment: Electrophoretic mobility shift assay, c-Myc/Max heterodimer; format: binding
Chain of c-Myc/Max heterodimer (P61244 whole entry, one chain of several): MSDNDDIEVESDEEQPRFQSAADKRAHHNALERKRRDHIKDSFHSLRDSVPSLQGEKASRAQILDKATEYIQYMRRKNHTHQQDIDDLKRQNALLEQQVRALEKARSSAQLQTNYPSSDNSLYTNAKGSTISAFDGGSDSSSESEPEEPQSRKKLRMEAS
Description: (§3) This leads to a hypothesize that KI-MS2-008 stabilizes the Max homodimer.

[7] = target: T1, Max homodimer (Homo sapiens, UniProt P61244); experiment: EMSA with recombinant Max, homodimer binding to DNA
T1 sequence (P61244 whole entry): as the sequence (P61244 whole entry, one chain of several) above
Description: as §3

[8] = target: T1, Max homodimer; experiment: fPLC quantification of Max monomer vs. Max homodimer; format: binding; details: monomer vs. homodimer populations
Description: as §3

[9] = test system: Myc; experiment: Myc protein levels; format: cell-based; details: recovered by proteasome inhibition
[10] = test system: Myc transcript; experiment: qPCR of Myc transcript levels; format: cell-based
[11] = test system: MYC-driven T-ALL model; experiment: MYC-driven T-ALL / lymphoma model, Luc-labeled cells transplanted into NSG mice; format: in vivo
[12] = Aqueous solubility at 25° C.; format: physicochemical
[13] = Intrinsic clearance, liver microsomes; format: in vitro ADME; details: Intrinsic clearance (liver microsomes, human)
[14] = test system: ST486, CA46, NCI-H1963, GBM4 cancer cell lines; experiment: Cell viability, CELL TITER GLO, cancer cell lines ST486, CA46, NCI-H1963, GBM4; format: cell-based; details: 3 days treatment (4 days GBM4)
Experimental: Compound 1 affected cell viability after treatment with Compound 1 for 3 days (and 4 days for GBM4 and NHA), as measured using CELL TITER GLO (Promega) in 4 different cancer cell lines: ST486 (Burkitt's lymphoma; FIG. 2), CA46 (Burkitt's lymphoma; FIG. 2), NCI-H1963 (small cell lung cancer; FIG. 2), and GBM4 (glioblastoma; FIG. 2). The cell viability of normal human astrocytes (NHA) was also assayed. Results were expressed as a mean+/−SEM (n=2). The effect of Compound 1 on cell viability in several cancer cell lines and normal human astrocytes (NHA) was determined. The cancer cell lines employed in the assay included those corresponding to Burkitt's lymphoma (ST486 and CA46), small cell lung cancer (NCI-H1963), and glioblastoma (GBM4). The cell viability of normal human astrocytes (NHA) was also assayed. Exemplary results are shown in FIG. 2, where viability was assessed by CELL TITER GLO assay (Promega). […] The effects of other compounds described herein on cell viability in several cancer cell lines were also determined, and exemplary results are shown in Table 2, where viability was assessed by CELL TITER GLO assay (Promega).

[15] = Table 3, read-out: IC50 Reporter assay
[16] = Table 3, read-out: IC50 Myc OFF
[17] = Homo sapiens, HEK-293T, HEK293T cells, 16 hours, Table 2, read-out: c-Myc reporter assay IC50
[18] = Homo sapiens, HEK-293T, read-out: IC50 value in Myc reporter assay

Question: What does the source list for `C=CCN1Cc2ccccc2[C@@H]2OC(c3ccccc3)=N[C@]2(Cc2ccccc2)C1=O` [Compound 4a]?
Answer: IC50 [1, 15]: 7.67 µM; IC50 ([2]; Table 3, read-out: IC50 Myc ON): 31.8 µM; IC50 [3, 16]: > 50 µM

Question: With `O=C(CCCCC1SCC2NC(=O)NC21)NCCOCCOCCNC(=O)OCCCOc1ccc(C2=N[C@]3(Cc4ccccc4)C(=O)N(CCS(=O)(=O)c4ccccc4)Cc4ccccc4[C@@H]3O2)cc1` (stereo partly drawn) [Compound 5] as the molecule, how does the IC50 [1, 17] read?
Answer: 5.38 µM

Question: And the IC50 [1, 18]?
Answer: 5.4 µM

Question: For `O=C1NCc2ccccc2[C@@H]2OC(c3ccccc3)=N[C@]12Cc1ccccc1` [Compound 2a], which IC50 [1, 15] is on record?
Answer: 16.8 µM

Question: What about the IC50 ([2]; Table 3, read-out: IC50 Myc ON) of the same molecule?
Answer: > 50 µM

Question: What about the IC50 [3, 16] of the same molecule?
Answer: > 50 µM

Question: With `O=C1N(CCS(=O)(=O)c2ccccc2)Cc2ccccc2[C@@H]2OC(c3ccccc3)=N[C@]12Cc1ccccc1` [Compound 3a] as the molecule, how does the IC50 [1, 15] read?
Answer: 6.19 µM

Question: What about the IC50 ([2]; Table 3, read-out: IC50 Myc ON) of the same molecule?
Answer: 11.4 µM

Question: What about the IC50 [3, 16] of the same molecule?
Answer: > 50 µM

Question: With `C#CCNC(=O)CN1Cc2ccccc2[C@@H]2OC(c3ccccc3)=N[C@]2(Cc2ccccc2)C1=O` [Compound 11a] as the molecule, how does the IC50 [1, 15] read?
Answer: 10.1 µM

Question: For `O=C(O)CN1Cc2ccccc2[C@@H]2OC(c3ccccc3)=N[C@]2(Cc2ccccc2)C1=O` [Compound 8a], which IC50 [1, 15] is on record?
Answer: > 50 µM

Question: What about the IC50 ([2]; Table 3, read-out: IC50 Myc ON) of the same molecule?
Answer: > 50 µM

Question: What about the IC50 [3, 16] of the same molecule?
Answer: > 50 µM

Question: What does the source list for `O=C1N(CCS(=O)(=O)c2ccccc2)Cc2ccccc2[C@@H]2OC(c3ccccc3)=N[C@]12Cc1ccccc1` [KI-MS2-008]?
Answer: IC50 [4]: 51.1 µM; IC50 [5]: 18.7 µM; Disruption of c-Myc/Max heterodimer (EMSA) [6]: does not disrupt the c-Myc/Max heterodimer; Max homodimer binding to DNA (EMSA) [7]: dose-dependent increase of Max homodimer binding to DNA; Induced dimerization of the Max homodimer [8]: 9.9%; Myc protein levels [9]: decreases Myc protein levels; Myc transcript levels [10]: decreases Myc transcript levels; Tumor volume [11]: impacts tumor volume

Question: Which IC50 [1, 15] does the source give for `C#CCN(CC(=O)NCCNC(=O)CN1Cc2ccccc2[C@@H]2OC(c3ccccc3)=N[C@]2(Cc2ccccc2)C1=O)C(=O)CCC1(C)N=N1` [Compound 12a] here?
Answer: 18.7 µM

Question: For `O=C1NCc2ccccc2[C@@H]2OC(c3ccccc3)=N[C@H]12` [Compound 1a], which IC50 [1, 15] is on record?
Answer: > 50 µM

Question: Which IC50 ([1]; HEK293T cells, 16 hours, Table 2, read-out: c-Myc reporter assay IC50) does the source give for `O=C1N(CCS(=O)(=O)c2ccccc2)Cc2ccccc2[C@@H]2OC(c3ccc(OCCCO)cc3)=N[C@]12Cc1ccccc1` (single isomer, unassigned) [15^a] here?
Answer: 4.28 µM

Question: And the IC50 ([1]; Table 3, listed as 15^b, read-out: IC50 Reporter assay)?
Answer: 4.74 µM

Question: And the IC50 ([1]; Table 3, listed as 15^c, read-out: IC50 Reporter assay)?
Answer: 4.77 µM

Question: And the IC50 [1, 15]?
Answer: 11.7 µM

Question: And the IC50 ([2]; Table 3, listed as 15^b, read-out: IC50 Myc ON)?
Answer: 8.49 µM

Question: And the IC50 ([2]; Table 3, listed as 15^c, read-out: IC50 Myc ON)?
Answer: 16.6 µM

Question: What about the IC50 ([2]; Table 3, read-out: IC50 Myc ON) of the same molecule?
Answer: 14.5 µM

Question: What about the IC50 [3, 16] of the same molecule?
Answer: > 50 µM

Question: With `O=C1N(CCS(=O)(=O)c2ccccc2)Cc2ccccc2[C@@H]2OC(c3ccc(OCCCO)cc3)=N[C@]12Cc1ccccc1` [Compound 1] as the molecule, how does the IC50 [1, 17] read?
Answer: 1.99 µM

Question: What about the IC50 [1, 18] of the same molecule?
Answer: 2.77 µM

Question: And the IC50 ([2]; Homo sapiens, P493-6, CELL TITER GLO, Table 2, read-out: P493-6 Myc ON Viability in cells)?
Answer: 6.8 µM

Question: What about the “Selectivity for cells expressing Myc over non-Myc expressing cells” value ([2]; P493-6, Myc ON vs. Myc OFF (doxycycline)) of the same molecule?
Answer: demonstrated a selectivity for cells expressing Myc

Question: And the IC50 ([3]; Homo sapiens, P493-6, CELL TITER GLO, Table 2, read-out: P493-6 Myc OFF Viability in cells)?
Answer: 58.1 µM

Question: And the solubility ([12]; Aqueous solubility (simulated gastric fluid))?
Answer: 51.2 µM (≈ 31.3 µg/mL)

Question: What about the solubility ([12]; aqueous buffer, Aqueous solubility (PBS, pH 7.4)) of the same molecule?
Answer: 9.2 µM (≈ 5.62 µg/mL)

Question: And the solubility ([12]; fassgf or other biorelevant, Aqueous solubility (simulated intestinal fluid))?
Answer: 200 µM (≈ 122 µg/mL)

Question: What about the half-life [13] of the same molecule?
Answer: 21 min

Question: And the “Effect on cell viability” value [14]?
Answer: demonstrated an effect in cell viability

Question: For `COC(=O)[C@@]1(Cc2ccccc2)N=C(c2ccccc2)O[C@H]1c1ccccc1CN=[N+]=[N-]` [Compound 6, Methyl (4S,5S)-5-(2-(azidomethyl)phenyl)-4-benzyl-2-phenyl-4,5-dihydrooxazole-4-carboxylate], which IC50 [1, 17] is on record?
Answer: 4.67 µM

Question: Which IC50 [1, 15] does the source give for `O=C1N(CCO)Cc2ccccc2[C@@H]2OC(c3ccccc3)=N[C@]12Cc1ccccc1` [Compound 10a] here?
Answer: 2.15 µM

Question: Which results are given for `CCOC(=O)CN1Cc2ccccc2[C@@H]2OC(c3ccccc3)=N[C@]2(Cc2ccccc2)C1=O` [Compound 7a]?
Answer: IC50 [1, 15]: 3.38 µM; IC50 ([2]; Table 3, read-out: IC50 Myc ON): 39.3 µM; IC50 [3, 16]: > 50 µM
